Results published in the supplement of paper PMC10307832.

Tests used:
Assay in all cases: relative viability (nuclei count vs DMSO), 5 days (fraction); higher = more cells survive
17-AAG + Tozasertib = compound: C=CCNC1=C2C[C@@H](C)C[C@H](OC)[C@H](O)[C@@H](C)/C=C(\C)[C@H](OC(N)=O)[C@@H](OC)/C=C\C=C(/C)C(=O)NC(=CC1=O)C2=O [17-AAG] + Cc1cc(Nc2cc(N3CCN(C)CC3)nc(Sc3ccc(NC(=O)C4CC4)cc3)n2)n[nH]1 [Tozasertib] (partner 0.1 µM)
Procedure, shortened: (§1)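 A single step with final 0.05% Triton X-100, 1% formaldehyde and 1 ug/ml Hoechst fixed the cells and stained nuclei 5 days after treatment. Lung cancer cell lines in 1536-well plates had been treated by pin tool the day after seeding with one drug alone or a fixed anchor-drug dose plus five library-drug doses (not always all listed) in √10 steps, and nuclei were counted on 4× images. Relative viability is the ratio of nuclei in treated wells to nuclei in vehicle wells, taken as the median of duplicate plates.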

17-AAG + Crizotinib = compound: C=CCNC1=C2C[C@@H](C)C[C@H](OC)[C@H](O)[C@@H](C)/C=C(\C)[C@H](OC(N)=O)[C@@H](OC)/C=C\C=C(/C)C(=O)NC(=CC1=O)C2=O [17-AAG] + C[C@@H](Oc1cc(-c2cnn(C3CCNCC3)c2)cnc1N)c1c(Cl)ccc(F)c1Cl [Crizotinib] (partner 1 µM)
Procedure, shortened: as §1

17-AAG + Vorinostat = compound: C=CCNC1=C2C[C@@H](C)C[C@H](OC)[C@H](O)[C@@H](C)/C=C(\C)[C@H](OC(N)=O)[C@@H](OC)/C=C\C=C(/C)C(=O)NC(=CC1=O)C2=O [17-AAG] + O=C(CCCCCCC(=O)Nc1ccccc1)NO [Vorinostat] (partner 1 µM)
Procedure, shortened: as §1

17-AAG + Navitoclax = compound: C=CCNC1=C2C[C@@H](C)C[C@H](OC)[C@H](O)[C@@H](C)/C=C(\C)[C@H](OC(N)=O)[C@@H](OC)/C=C\C=C(/C)C(=O)NC(=CC1=O)C2=O [17-AAG] + CC1(C)CCC(c2ccc(Cl)cc2)=C(CN2CCN(c3ccc(C(=O)NS(=O)(=O)c4ccc(N[C@H](CCN5CCOCC5)CSc5ccccc5)c(S(=O)(=O)C(F)(F)F)c4)cc3)CC2)C1 [Navitoclax] (partner 0.5 µM)
Procedure, shortened: as §1

Cell Line	relative viability (17-AAG + Tozasertib; first compound 0.00128 µM)	relative viability (17-AAG + Tozasertib; first compound 0.004048 µM)	relative viability (17-AAG + Tozasertib; first compound 0.0128 µM)	relative viability (17-AAG + Tozasertib; first compound 0.04048 µM)	relative viability (17-AAG + Tozasertib; first compound 0.128 µM)	relative viability (17-AAG + Crizotinib; first compound 0.00128 µM)	relative viability (17-AAG + Crizotinib; first compound 0.004048 µM)	relative viability (17-AAG + Crizotinib; first compound 0.0128 µM)	relative viability (17-AAG + Crizotinib; first compound 0.04048 µM)	relative viability (17-AAG + Crizotinib; first compound 0.128 µM)	relative viability (17-AAG + Vorinostat; first compound 0.00128 µM)	relative viability (17-AAG + Vorinostat; first compound 0.004048 µM)	relative viability (17-AAG + Vorinostat; first compound 0.0128 µM)	relative viability (17-AAG + Vorinostat; first compound 0.04048 µM)	relative viability (17-AAG + Vorinostat; first compound 0.128 µM)	relative viability (17-AAG + Navitoclax; first compound 0.00128 µM)	relative viability (17-AAG + Navitoclax; first compound 0.004048 µM)	relative viability (17-AAG + Navitoclax; first compound 0.0128 µM)	relative viability (17-AAG + Navitoclax; first compound 0.04048 µM)	relative viability (17-AAG + Navitoclax; first compound 0.128 µM)
NCI-H647	0.419	0.222	0.0879	0.0995	0.0751	1.11	0.755	0.101	0.0977	0.08	0.584	0.533	0.132	0.116	0.0825	1.23	1.01	0.11	0.104	0.0816
SW 1573	0.234	0.254	0.117	0.104	0.0907	0.764	0.872	0.687	0.167	0.106	0.782	1.01	0.241	0.128	0.0675	0.704	0.955	0.74	0.142	0.0734
NCI-H460	0.478	0.521	0.0911	0.0297	0.0214	0.685	0.521	0.0433	0.0161	0.013	0.733	0.41	0.0303	0.0238	0.0231	0.986	1.08	0.0303	0.0146	0.0215
SK-MES-1	0.872	0.851	0.168	0.164	0.143	1.02	1.01	0.822	0.224	0.144	1.1	1.03	0.514	0.182	0.179	1.17	1.12	0.951	0.162	0.131
NCI-H1355	0.554	0.583	0.543	0.555	0.167	1.03	1.1	1.1	0.93	0.287	0.639	0.692	0.607	0.228	0.141	0.927	0.944	0.958	0.449	0.373
UMC-11	0.222	0.219	0.225	0.217	0.222	0.717	0.58	0.399	0.148	0.0804	0.467	0.363	0.343	0.229	0.222	0.363	0.37	0.304	0.17	0.138
NCI-H2405	0.776	0.765	0.451	0.28	0.156	0.868	0.837	0.922	0.303	0.163	1.08	0.994	0.391	0.209	0.193	0.98	0.71	0.231	0.271	0.165
LCLC-97TM1	0.213	0.268	0.268	0.251	0.21	0.325	0.387	0.433	0.395	0.295	0.848	0.668	0.634	0.44	0.0747	0.47	0.573	0.518	0.378	0.355
EMC-BAC-2	0.286	0.297	0.347	0.26	0.226	0.712	0.753	0.756	0.902	0.281	0.609	0.506	0.387	0.199	0.357	1.23	1.07	1.18	1.11	0.443
NCI-H1975	0.796	0.587	0.145	0.12	0.0964	0.951	0.825	0.218	0.163	0.126	0.716	0.597	0.311	0.157	0.152	1.23	0.928	0.453	0.186	0.145
BEN	0.529	0.625	0.473	0.738	0.472	0.896	0.821	0.929	0.739	0.237	0.673	0.586	0.664	0.667	0.464	0.069	0.0609	0.0634	0.052	0.0666
NCI-H23	0.425	0.563	0.365	0.213	0.187	0.426	0.5	0.403	0.155	0.123	0.635	0.373	0.344	0.129	0.116	0.922	0.836	0.688	0.167	0.125
NCI-H596	0.959	0.832	1.01	0.443	0.258	0.95	0.834	1.03	0.986	0.542	0.654	0.582	0.692	0.576	0.323	1.02	0.91	0.908	0.834	0.518
CAL-12T	0.328	0.24	0.375	0.314	0.153	0.676	0.775	0.646	0.778	0.255	0.796	0.729	0.671	0.65	0.282	1.25	1.17	1.21	0.799	0.296
EPLC-272H	0.331	0.329	0.482	0.379	0.143	0.956	0.872	1.01	0.672	0.338	0.398	0.426	0.109	0.115	0.0985	1.11	1.21	1.02	1.06	0.225
